Experimental data as given in patent publication US20230053437A1, “LIPID COMPOUNDS AND LIPID NANOPARTICLE COMPOSITIONS” (Suzhou Abogen Biosciences Co., Ltd., priority 2020, published 2023).

How the values were obtained:
Type in all cases: physicochemical
[1] = Encapsulation efficiency of lipid nanoparticles, Quant-it Ribogreen RNA quantification assay; settings: LNP with hEPO mRNA
Experimental: (§1) Briefly, a cationic lipid provided herein, DSPC, cholesterol, and PEG-lipid were solubilized in ethanol at a molar ratio of 50:10:38.5:1.5, and mRNA were diluted in 10 to 50 mM citrate buffer, pH=4. The LNPs were prepared at a total lipid to mRNA weight ratio of approximately 10:1 to 30:1 by mixing the ethanolic lipid solution with the aqueous mRNA solution at a volume ratio of 1:3 using a microfluidic apparatus, total flow rate ranging from 9-30 mL/min. Ethanol were thereby removed and replaced by DPBS using dialysis. Finally, the lipid nanoparticles were filtered through a […] sterile filter.
(§2) Lipid nanoparticle size were determined by dynamic light scattering using a Malvern Zetasizer Nano ZS (Malvern UK) using a 173° backscatter detection mode. The encapsulation efficiency of lipid nanoparticles were determined using a Quant-it Ribogreen RNA quantification assay kit (Thermo Fisher Scientific, UK) according to the manufacturer's instructions.

[2] = Lipid nanoparticle size by dynamic light scattering (Malvern Zetasizer Nano ZS); settings: LNP: cationic lipid/DSPC/cholesterol/PEG-lipid 50:10:38.5:1.5 with hEPO mRNA
Experimental: as §1, §2

[3] = Apparent pKa of LNP formulations, TNS fluorescence assay; settings: LNP cationic lipid/DSPC/cholesterol/DMG-PEG 50/10/38.5/1.5 mol %, pH 3 to 9
Experimental: As reported in literature, the apparent pKa of LNP formulations correlates with the delivery efficiency of LNPs for nucleic acids in vivo. The apparent pKa of each formulation was determined using an assay based on fluorescence of 2-(p-toluidino)-6-napthalene sulfonic acid (TNS). LNP formulations comprising of cationic lipid/DSPC/cholesterol/DMG-PEG (50/10/38.5/1.5 mol %) in PBS were prepared as described above. TNS was prepared as a 300 uM stock solution in distilled water. LNP formulations were diluted to 0.1 mg/ml total lipid in 3 mL of buffered solutions containing 50 mM sodium citrate, 50 mM sodium phosphate, 50 mM sodium borate, and 30 mM sodium chloride where the pH ranged from 3 to 9. An aliquot of the TNS solution was added to give a final concentration of 0.1 mg/ml and following vortex mixing fluorescence intensity was measured at room temperature in a Molecular Devices Spectramax iD3 spectrometer using excitation and mission wavelengths of 325 nm and 435 nm. A sigmoidal best fit analysis was applied to the fluorescence data and the pKa value was measured as the pH giving rise to half-maximal fluorescent intensity.

Structure (SMILES)	Encapsulation Efficiency [1] [%]	polydispersity [2]	size (nm) [2] [nm]	Apparant Pka [3]
CCCCCCCCC(CCCCCC)COC(=O)CCCCCC(=O)OCC1(COC(=O)CCCCCC(=O)OCC(CCCCCC)CCCCCCCC)CCN(C(=O)CCCN2CCOCC2)CC1 (stereo not drawn) [Compound 60]	91.7	0.048	90.17	7.44
CCCCCCCC(=O)OCC1(COC(=O)CCCCCCC)CCN(CCO)CC1 [Compound 62]	94.6	0.122	120.8	6.972
CCCCCCCCCCCC(=O)OCC1(COC(=O)CCCCCCCCCCC)CCN(CCCCCCO)CC1 [Compound 21]	73.2	0.198	127.8	6.71
CCCCCCCCCCCC(=O)OCC1(COC(=O)CCCCCCCCCCC)CCN(C(=O)CCCN2CCOCC2)CC1 [Compound 43]	69.9	0.214	89.71	6.83
CCCCCCCCCCCC(=O)OCC1(COC(=O)CCCCCCCCCCC)CCN(C(=O)CCCN(CC)CCO)CC1 [Compound 35]	96.0	0.261	89.42	8.02
CCCCCCCCCCCC(=O)OCC1(COC(=O)CCCCCCCCCCC)CCN(C(=O)CCN(CCO)CCO)CC1 [Compound 4]	92.8	0.199	64.29	7.18
CCCCCCCCC(CCCCCC)COC(=O)CCCCCC(=O)OCC1(COC(=O)CCCCCC(=O)OCC(CCCCCC)CCCCCCCC)CCN(C(=O)CCN(C)C)CC1 (stereo not drawn) [Compound 51]	101.7	0.424	103.3	7.46
CCCCCCCCCCCCCC(=O)OCC1(COC(=O)CCCCCCCCCCCCC)CCN(C(=O)CCN(CCCCCC)CCCCCC)CC1 [Compound 33]	89.9	0.106	87.01	6.06
CCCCCCCCC(CCCCCC)COC(=O)CCCCCC(=O)OCC1(COC(=O)CCCCCC(=O)OCC(CCCCCC)CCCCCCCC)CCN(C(=O)CCN2CCOCC2)CC1 (stereo not drawn) [Compound 55]	80.6	0.247	81.29	7.25
